According to US20230416294A1, “DECITABINE ANALOGS FOR IMMUNOLOGICAL AND ONCOLOGICAL THERAPY” (The Johns Hopkins University, priority 2020, published 2023):
Where two headings read alike, the source gives them in different places.

Key:
[1] = tested on: Regulatory T cell (Tregs); test: Treg functional assay for efficacy; assay type: cell-based, Murine; conditions: dose response
Description: A functional assay was developed to identify a compound that can augment Regulatory T cell (Tregs) suppressive function. Tregs are the major regulators of the immune systems and are paramount in transplant tolerance and in autoimmune and inflammatory diseases. Current hypomethylating drugs such as decitabine (DAC) can augment Treg function, but carry significant side effects and cytotoxicity. Murine Tregs were isolated from spleens using magnetic beads (Miltenyi). […] Tregs were cultured for 48 hrs in the presence of anti-CD3, anti CD28 and IL-2+/−equimolar concentrations decitabine and analogs. After 48 hrs, Tregs were analyzed for suppressive phenotype using Foxp3 expression (master transcription factor) and relative proliferation (Ki-67 expression).

[2] = tested on: Mouse CD4+ T cells; test: regulatory T cell phenotype and function in cultured CD4+ T cells; assay type: cell-based; conditions: Mouse CD4+ T cells cultured for 3 days +/−DAC or MK-923
Description: Mouse CD4+ T cells were cultured for 3 days +/−DAC or MK-923;

[3] = tested on: influenza; test: influenza model; conditions: in vivo
[4] = tested on: lung allograft rejection; test: lung allograft rejection; conditions: in vivo
[5] = tested on: eosinophilic inflammation; test: asthma model; conditions: in vivo
[6] = biological target: cytidine deaminase (CDA) (Homo sapiens, UniProt P32320); test: stability to cytidine deaminase (CDA); assay type: in vitro ADME
[7] = tested on: DU145 cancer cells; test: DAC incorporation into genomic DNA and DNA demethylation in DU145 cells; assay type: cell-based; conditions: DU145 cancer cells treated with a dose response of MK-923
Description: DU145 cancer cells were treated with a dose response of MK-923, and the degree of 5-aza-2′deoxycytidine (DAC) (Blue line, left axis), and DNA demethylation (orange line, right axis), was measured.

[8] = toxicity of nebulized compound versus DAC; assay type: in vivo
[9] = tested on: bacterial-induced lung injury; test: bacterial-induced lung injury model, nebulized compound; assay type: in vivo; conditions: (1 mg/kg DAC)
[10] = lung delivery versus plasma after nebulization in LPS lung injury model; assay type: in vivo; conditions: inhaled, nebulized, read-out: enhanced lung delivery versus plasma
[11] = tested on: acute lung injury induced by lipopolysaccharide (LPS); conditions: in vivo

Chain of cytidine deaminase (CDA) (P32320 whole entry, species assumed): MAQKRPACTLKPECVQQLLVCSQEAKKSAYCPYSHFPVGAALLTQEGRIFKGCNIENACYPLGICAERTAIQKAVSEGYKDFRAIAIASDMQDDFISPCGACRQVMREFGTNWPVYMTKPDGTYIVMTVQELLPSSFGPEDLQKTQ

In the case of `Nc1ncn([C@H]2C[C@H](O)[C@@H](CO)O2)c(=O)n1` [decitabine, 5-aza-2′-deoxycytidine], the “increase in Tregs” value [1] is reported as “dose-dependent increase”, the “enhancing regulatory T cell (Tregs) phenotype and function” value [2] is reported as “equipotent” and the “ongoing inflammation in an influenza model” value [3] is reported as “rescues ongoing inflammation”. For the same compound, the lung allograft rejection [4] was “improves lung allograft rejection” and the “eosinophilic inflammation in an asthma model” value [5] was “potently abrogates eosinophilic inflammation”.
In the case of `O=c1nc(/N=C/N2CCCC2)ncn1[C@H]1C[C@H](O)[C@@H](CO)O1` [MK-911], the “stability to cytidine deaminase (CDA)” value [6] is reported as “stable” and the “increase in Tregs” value [1] is reported as “dose-dependent increase”.
For `CN1CCC/C1=N/c1ncn([C@H]2C[C@H](O)[C@@H](CO)O2)c(=O)n1` [MK-923], the “enhancing regulatory T cell (Tregs) phenotype and function” value [2] was “equipotent”, the “5-aza-2′deoxycytidine (DAC) incorporation into genomic DNA” value [7] was “dose responsive increase” and the “DNA Cytosine methylation” value [7] was “decrease”. For the same compound, the “toxicity versus DAC” value [8] was “improved toxicity versus DAC”, the “efficacy in bacterial-induced lung injury” value [9] was “rescues bacterial-induced lung injury” and the hematological toxicity [9] was “reduced hematological toxicity”. The Kp [10] was 6, the “therapeutic index versus DAC” value [11] was “enhanced therapeutic index versus DAC” and the “toxicity in LPS lung injury model” value [11] was “without overt toxicity”.
For `CN(C)/C=N\c1ncn([C@H]2C[C@H](O)[C@@H](CO)O2)c(=O)n1` [MK-890, N^4-Dimethylaminomethylene derivative], the “stability to cytidine deaminase (CDA)” value ([6]; +/−tetrahydrouridine) was “stable”.
